The values below come from patent US11397184B2, “Selection of patients for combination therapy” (Syndax Pharmaceuticals, Inc., priority 2015, dated 2022).

Where two headings read alike, the source gives them in different places. Some results are limits rather than exact numbers.

Data set [1] deals with CD14+ monocytes in PBMCs of breast cancer patients. Put plainly: ENCORE 301 blood samples: flow cytometry of circulating monocyte populations, baseline vs C1D15. The data set is classed as in vivo, human. An excerpt: (A) Gating strategy for analysis of CD14^+ monocytes (left panel), CD14^+HLA-DR^hi monocytes (red box, right upper panel), and CD14^+HLA-DR^low/neg monocytes (blue box, right lower panel) in PBMCs of breast cancer patients. Initially gated on single viable CD45^+ cells. […] (D) HLA-DR expression on CD14^+ monocytes in vitro. […] Median fluorescence intensity, MFI.
(§1) Blood samples were obtained on cycle 1 day 1 (C1D1; pre-treatment), C1D2, C1D8, and C1D15 for biomarker analyses. […] Cell populations were based on the following surface markers, in which “X−” means negative for marker X, “X+” means positive for marker X, “Xlow/−” means low levels to absence of marker X, and “Xhi” means high levels of expression of marker X:
(§2) Monocytes were analyzed for three populations: (1) CD14+; (2) CD14+, HLA-DRhi; and (3) CD14+, HLA-DRlow/−. PD-1, CTLA-4, and TIM-3 were measured on CD8+ T-cells, CD4+ T-cells, and Tregs, and CD40 was measured on myeloid derived suppressor cells.
(§3) The percent change in subsets at C1D15 vs. baseline was assessed based on the following surface markers: Lin-MDSC (lin;CD3,CD19,CD56)-HLA-DR-CD11b+CD33+), granulocytic MDSC (CD14−CD11b+CD33+), monocytic MDSC (Lin−HLA-DR−CD11b+CD33+CD14+), immature MDSC (Lin−HLA-DR−CD11b+CD33+CD14−), CD8+T-cells (CD4−CD8+), Foxp3−CD4+T-cells (CD8−CD4+Foxp3−), and Tregs (CD4+CD8−CD25hiFoxp3+). Monocytes were analyzed for three populations: CD14+, CD14+HLA-DRhi, and CD14+HLA-DR-low/negative. In addition, PD-1, CTLA-4, and TIM-3 were measured on T-cell subsets, and CD40 was measured on MDSCs.
On the technique in general: In flow cytometry, cells or beads pass a laser one at a time.

Data set [2] relates to myeloid derived suppressor cells in PBMCs of breast cancer patients. Put plainly: ENCORE 301 blood samples: flow cytometry of circulating MDSC subsets and CD40 on MDSCs, baseline vs C1D15. The data set is classed as in vivo, human.
Excerpt: (A) Gating strategy for analysis of MDSC phenotypes in PBMCs of breast cancer patients. Initial gating was on single viable CD45^+ cells. Lineage (CD3, CD19, CD56)^−HLA-DR^−CD11b^+CD33^+ cells were defined as Lin^−MDSCs. The Lin^−MDSCs were further divided into monocytic MDSCs (Lin^−HLA-DR^−CD11b^+CD33^+CD14^+ cells) and immature MDSCs (Lin^−HLA-DR^−CD11b^+CD33^+CD14^− cells). CD14^−CD11b^+CD33^+ cells were defined as granulocytic MDSCs. […]
as §1
Myeloid derived suppressor cell: CD3−, CD19−, CD56−, HLA-DR−, CD11b+, CD33+.
PMN-MDSC: CD14−, CD11b+, CD33+.
M-MDSC: CD3−, CD19−, CD56−, HLA-DR−, CD11b+, CD33+, CD14+.
Immature MDSC: CD3−, CD19−, CD56−, HLA-DR−, CD11b+, CD33+, CD14−.
as §2, §3

For data set [3], the system named is advanced hormone receptor positive breast cancer. Briefly: ENCORE 301 randomized, placebo-controlled phase II trial: clinical outcome (PFS, OS). It counts as in vivo, human. The note with it: the 34 patients analysed for immune subsets. An excerpt:
Blood was collected from a subset of 49 patients (27 EE and 22 EP) representative of the 130 patients enrolled in ENCORE 301 on cycle 1 day 1 (C1D1; pretreatment), C1D2, C1D8, and C1D15 for biomarker analyses. Of these 49, C1D1 and C1D15 samples were available from 34 patients (20 EE and 14 EP) for further analysis of circulating immune subsets.

The test system of data set [4] is T-cell subsets in PBMCs of breast cancer patients. Briefly: ENCORE 301 blood samples: T-cell subsets and immune checkpoint receptor expression. The data set is classed as in vivo, human. The settings on record: ENCORE 301 patients, C1D15 vs baseline. As for the experimental part: FIG. 5 illustrates gating strategy for analysis of T-cell subsets in PBMCs of breast cancer patients. (A) Initial gating was on single viable cells. The CD4^+ T-cells were further divided into Tregs (CD8^−CD4^+CD25^hiFoxp3^+ cells) and Foxp3^−CD4^+ T-cells (CD8^−CD4^+Foxp3^− cells). (B) Immune checkpoint receptor expression was evaluated for CD8^+ T-cells, Foxp3^−CD4^+ T-cells, and Tregs. Representative histograms for PD-1 (left), CTLA-4 (middle), and TIM-3 (right) were shown.
CD8+ T-cell: CD4−, CD8+, Foxp3−.
CD4+ T-cell: CD8−, CD4+, Foxp3−.
Tregs: CD4+, CD8−, CD25hi, Foxp3+.
as §2, §3

In data set [5] the test system is monocytic MDSCs, granulocytic MDSCs and Lineage cells from healthy donor PBMCs. Briefly: In vitro dead cell dye staining of PBMCs cultured with IL-6 and GM-CSF, then DMSO or entinostat. The data set is classed as cell-based, human. The note with it: entinostat 0.5 μM vs DMSO, two or three days, n=7. As to the method:
(C) Absolute viable cell counts of MDSCs (upper panel, monocytic MDSCs; lower panel, granulocytic MDSCs). Fresh PBMCs (2×10^6 PBMCs/well) were cultured with IL-6 (10 ng/ml) and GM-CSF (10 ng/ml). […] (D) Percentage of dead cell dye-positive cells in the monocytic MDSCs (red line), granulocytic MDSCs (blue line), and Lineage cells (black line). […] Percentage of dead cell dye-positive cells among each population (monocytic MDSCs, granulocytic MDSCs, and lineage cells) was calculated. Mean±SD is shown (n=7).

For data set [6] the following is noted: in vivo; cited from earlier work.
Data set [7] has as its system squamous or non-squamous NSCLC. The settings on record: cited from earlier work.
Data set [8] has as its system advanced refractory malignancies. The settings on record: cited from earlier work.
For the next data set, the system named is melanoma. The settings on record: cited from earlier work.
[9] abbreviates: C1D1 vs C1D15, statistic not stated.
The mark [10] stands for this setting: breast cancer patients, EP n = 14, EE n = 20, mean.
Where [11] appears, read: breast cancer patients, EP n = 14, EE n = 20, median.

As to `C=C1C[C@@H]2[C@H](CC[C@]3(C)C(=O)CC[C@@H]23)[C@@]2(C)C=CC(=O)C=C12` [EP], in data set [1] (setting [9]), the “HLA-DR levels (expression) on monocytes, change” value is −4.7% and the “change of (number of) HLA-DR+ monocytes” value was −11.38%. Moreover, in data set [1] (setting [10]), the “CD14+ change from baseline to C1D15, Mean (SD)” value is reported as −0.58 (22.73) %; the “CD14+HLA-DR HI change from baseline to C1D15, Mean (SD)” value was −8.63 (17.77) %; the “CD14+HLA-DR LO/NEG change from baseline to C1D15, Mean (SD)” value is 13.45 (43.11) %; the “HLA-DR expression on CD14+ change from baseline to C1D15, Mean (SD)” value is −6.23 (18.77) %. Also, in data set [1] (setting [11]), the “CD14+ change from baseline to C1D15, Median (Min, Max)” value came to 1.90 %; the “CD14+HLA-DR HI change from baseline to C1D15, Median (Min, Max)” value is recorded as −11.38 %; the “CD14+HLA-DR LO/NEG change from baseline to C1D15, Median (Min, Max)” value amounted to 1.55 %; the “HLA-DR expression on CD14+ change from baseline to C1D15, Median (Min, Max)” value is on record as −4.74 %. In data set [2] (setting [9]), the “change of M-MDSCs (monocytic MDSC)” value is on record as “+1.97%”, the “change of PMN-MDSCs (granulocytic MDSC)” value is “+20.56%” and the “change of immature MDSCs” value is −15.0%. In [2] (setting [10]), the “CD40 on Lin-MDSCs change from baseline to C1D15, Mean (SD)” value is on record as 14.85 (34.92) %; the “CD40 on g-MDSCs change from baseline to C1D15, Mean (SD)” value is on record as 16.52 (32.07) %; the “CD40 on immature MDSCs change from baseline to C1D15, Mean (SD)” value is given as 18.64 (35.15) %; the “CD40 on m-MDSCs change from baseline to C1D15, Mean (SD)” value is 3.37 (25.69) %. In [2] (setting [10]), the “Lin-MDSCs change from baseline to C1D15, Mean (SD)” value is reported as 1.28 (83.31) %; the “g-MDSCs change from baseline to C1D15, Mean (SD)” value was 20.56 (68.45) %; the “immature MDSCs change from baseline to C1D15, Mean (SD)” value is 4.92 (94.50) %; the “m-MDSCs change from baseline to C1D15, Mean (SD)” value is reported as 28.24 (86.60) %. In data set [2] (setting [11]), the “CD40 on Lin-MDSCs change from baseline to C1D15, Median (Min, Max)” value is recorded as 3.37 %; the “CD40 on g-MDSCs change from baseline to C1D15, Median (Min, Max)” value is recorded as 10.52 %; the “CD40 on immature MDSCs change from baseline to C1D15, Median (Min, Max)” value is on record as 9.00 %; the “CD40 on m-MDSCs change from baseline to C1D15, Median (Min, Max)” value is given as 1.57 %. Moreover, in data set [2] (setting [11]), the “Lin-MDSCs change from baseline to C1D15, Median (Min, Max)” value was −22.11 %; the “g-MDSCs change from baseline to C1D15, Median (Min, Max)” value is recorded as 3.82 %; the “immature MDSCs change from baseline to C1D15, Median (Min, Max)” value is recorded as −20.94 %; the “m-MDSCs change from baseline to C1D15, Median (Min, Max)” value is given as 1.97 %. In addition, in data set [3], the “Overall Survival (OS)” value is given as 20.3 months and the “Progression Free Survival (PFS)” value turned out to be 1.8 months.

What is called half-life is the time needed for the level to fall by half in the phase considered. For `Nc1ccccc1NC(=O)c1ccc(CNC(=O)OCc2cccnc2)cc1` [Entinostat, N-(2-aminophenyl)-4-[N-(pyridine-3-yl)methoxycarbonylamino-methyl]-benzamide], the “alteration of expression of CTLA-4, PD-1, or TIM-3 on T-cell subsets” value in data set [4] is “did not significantly”. For the same compound, in data set [5] (P=0.016), the “percentage of dead (dead cell dye-positive) granulocytic MDSCs” value was “increased” and the “percentage of dead (dead cell dye-positive) monocytic MDSCs” value is recorded as “increased”. In data set [5] (P=0.7), the “percentage of dead (dead cell dye-positive) lineage cells (CD3+, CD19+, or CD56+)” value is “not increased”. Further, in data set [6], the half-life result is recorded as “about 100 hours”.

“MPDL3280A: human anti-PD-L1 mAb with engineered Fc domain”: the “24-week PFS rate” value is 46% in data set [7] (non-squamous cell NSCLC) and 44% in [7] (squamous cell NSCLC).

For the compound “Pembrolizumab: humanized monoclonal IgG4 anti-PD-1 antibody”, the maximum tolerated dose result in data set [8] (1, 3 and 10 mg/kg intravenously) was “not reached”. Further, the “patients with some tumor regression” value in data set [8] (dose-escalation study) is recorded as “Four”. Moreover, the half-life in data set [8] (in vivo) is 13.6 to 21.7 days. The “overall objective response rate (ORR)” value with melanoma (immune-related response criteria, 44 of 117) was 38%. Besides, in the data set with melanoma (in vivo), the “patients with some AEs” value is 79% and the “rate of severe toxicities, less dose intense cohorts” value was less than 10%. In the data set on melanoma (melanoma), the “median progression free survival” value is reported as “exceeded 7 months” and the “patients with some degree of tumor regression” value was 77%.
